According to PubChem BioAssay AID256 (DTP/NCI, 2004):
Values joined by “and” are separate entries in the source; they are usually repeats but may differ in a detail not shown here. Equal entries are not always repeated. Toxic doses and inconclusive results are not listed. Rule for the calls: active = survival T/C of 150% or more; inactive = T/C below 125% in these data.

Tested on: CD2F1 mice, L1210 leukemia ip, survival T/C
Assay: NCI In Vivo Anticancer Drug Screen. Data for tumor model L1210 Leukemia (intraperitoneal) in CD2F1 (CDF1) mice
Conditions: higher = longer survival
In short: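 Activity against a transplanted murine tumor was judged by comparing the compound group with a vehicle group. The outcome in the treated animals was divided by that in the controls.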

[1] = endpoint: mean survival time, dose: 25.0 mg/kg/injection, schedule: Q04DX003 (ip), vehicle: saline with Tween-80
[2] = endpoint: mean survival time, dose: 50.0 mg/kg/injection, schedule: Q04DX003 (ip), vehicle: saline with Tween-80
[3] = endpoint: mean survival time, dose: 100.0 mg/kg/injection, schedule: Q04DX003 (ip), vehicle: saline with Tween-80
[4] = endpoint: mean survival time, dose: 50.0 mg/kg/injection, schedule: Q01DX009 (ip), vehicle: saline with Tween-80
[5] = endpoint: mean survival time, dose: 100.0 mg/kg/injection, schedule: Q01DX009 (ip), vehicle: saline with Tween-80
[6] = endpoint: mean survival time, dose: 200.0 mg/kg/injection, schedule: Q01DX009 (ip), vehicle: saline with Tween-80
[7] = endpoint: mean survival time, dose: 100.0 mg/kg/injection, schedule: Q01DX001 (ip), vehicle: saline with Tween-80
[8] = endpoint: mean survival time, dose: 200.0 mg/kg/injection, schedule: Q01DX001 (ip), vehicle: saline with Tween-80
[9] = endpoint: mean survival time, dose: 400.0 mg/kg/injection, schedule: Q01DX001 (ip), vehicle: saline with Tween-80
[10] = endpoint: mean survival time, dose: 400.0 mg/kg/injection, schedule: Q01DX009 (ip), vehicle: saline with Tween-80
[11] = endpoint: mean survival time, dose: 200.0 mg/kg/injection, schedule: Q04DX003 (ip), vehicle: saline with Tween-80
[12] = endpoint: mean survival time, dose: 12.5 mg/kg/injection, schedule: Q01DX009 (ip), vehicle: saline with Tween-80
[13] = endpoint: mean survival time, dose: 100.0 mg/kg/injection, schedule: Q04DX003 (ip), vehicle: saline
[14] = endpoint: mean survival time, dose: 200.0 mg/kg/injection, schedule: Q04DX003 (ip), vehicle: saline
[15] = endpoint: mean survival time, dose: 400.0 mg/kg/injection, schedule: Q04DX003 (ip), vehicle: saline
[16] = endpoint: mean survival time, dose: 400.0 mg/kg/injection, schedule: Q04DX003 (ip), vehicle: saline with Tween-80
[17] = endpoint: mean survival time, dose: 25.0 mg/kg/injection, schedule: Q01DX009 (ip), vehicle: saline
[18] = endpoint: mean survival time, dose: 50.0 mg/kg/injection, schedule: Q01DX009 (ip), vehicle: saline

Measured: T/C

Clc1ccc(OCC2CO2)cc1 (centres undefined)
inactive: [1] 101 % of control | [2] 101 % of control | [3] 98 % of control

COC(=O)c1cc(OC)cc(OC)c1
inactive: endpoint: mean survival time, dose: 100.0 mg/kg/injection, schedule: Q01DX009 (ip), vehicle: other 96 % of control | endpoint: mean survival time, dose: 200.0 mg/kg/injection, schedule: Q01DX009 (ip), vehicle: other 110 % of control | endpoint: mean survival time, dose: 400.0 mg/kg/injection, schedule: Q01DX009 (ip), vehicle: other 91 % of control

CCCC/C=C/COCC
inactive: [4] 97 % of control | [5] 94 % of control | [6] 97 % of control

O=C(c1ccccc1)C(c1ccccc1)C(SCc1ccccc1)c1ccccc1 (centres undefined)
inactive: [7] 88 % of control | [5] 94 % of control | [8] 90 % of control | [6] 100 % of control | [9] 98 % of control | [10] 103 % of control

CC(=O)OCCCC(C)Nc1ccnc2cc(Cl)ccc12 (centres undefined)
inactive: [4] 100 % of control | [5] 96 % of control | [3] 96 % of control | [6] 96 % of control | [11] 98 % of control

O=P1(c2ccccc2)NCC(Br)CO1 (centres undefined)
inactive: endpoint: mean survival time, dose: 31.3 mg/kg/injection, schedule: Q01DX001 (ip), vehicle: other 95 % of control | endpoint: mean survival time, dose: 62.5 mg/kg/injection, schedule: Q01DX001 (ip), vehicle: other 95 % of control | endpoint: mean survival time, dose: 125.0 mg/kg/injection, schedule: Q01DX001 (ip), vehicle: other 100 % of control | endpoint: mean survival time, dose: 250.0 mg/kg/injection, schedule: Q01DX001 (ip), vehicle: other 100 % of control | endpoint: mean survival time, dose: 500.0 mg/kg/injection, schedule: Q01DX001 (ip), vehicle: other 95 % of control

CCCCCCCCCCCCCCCC(=O)N(CCCN(C)C)C1CCC(N(CCCN(C)C)C(=O)CCCCCCCCCCCCCCC)CC1 (centres undefined)
inactive: [12] 101 % of control | endpoint: mean survival time, dose: 12.5 mg/kg/injection, schedule: Q04DX003 (ip), vehicle: saline with Tween-80 93 % of control | [1] 111 % of control | [2] 102 % of control

Cc1ccc(C(=O)[O][Hg][CH2]C2COC([CH2][Hg][O]C(=O)c3ccc(C)cc3)CO2)cc1 (centres undefined)
inactive: endpoint: mean survival time, dose: 3.12 mg/kg/injection, schedule: Q01DX009 (ip), vehicle: Klucel (hydroxypropylcellulose) (HPC) 100 % of control and 106 % of control | endpoint: mean survival time, dose: 6.25 mg/kg/injection, schedule: Q01DX009 (ip), vehicle: Klucel (hydroxypropylcellulose) (HPC) 101 % of control and 105 % of control | endpoint: mean survival time, dose: 12.5 mg/kg/injection, schedule: Q01DX009 (ip), vehicle: Klucel (hydroxypropylcellulose) (HPC) 98 % of control and 108 % of control | endpoint: mean survival time, dose: 25.0 mg/kg/injection, schedule: Q01DX009 (ip), vehicle: Klucel (hydroxypropylcellulose) (HPC) 98 % of control and 108 % of control | endpoint: mean survival time, dose: 50.0 mg/kg/injection, schedule: Q01DX009 (ip), vehicle: Klucel (hydroxypropylcellulose) (HPC) 104 % of control

CC(C)C([N+](C)(C)C)P(=O)([O-])O (centres undefined)
inactive: [13] 101 % of control | [14] 96 % of control | [15] 101 % of control

Cc1nc2c(NC(=O)CCl)nn(C)c2nc1C
inactive: [3] 98 % of control | [11] 95 % of control

COc1ccc(Cc2ccc(OC)c(OC)c2)cc1OC
inactive: endpoint: median survival time, dose: 25.0 mg/kg/injection, schedule: Q01DX005 (ip), vehicle: saline with Tween-80 96 % of control | endpoint: median survival time, dose: 25.0 mg/kg/injection, schedule: Q04DX003 (ip), vehicle: saline 100 % of control | endpoint: median survival time, dose: 50.0 mg/kg/injection, schedule: Q01DX005 (ip), vehicle: saline with Tween-80 98 % of control | endpoint: median survival time, dose: 50.0 mg/kg/injection, schedule: Q04DX003 (ip), vehicle: saline 100 % of control | endpoint: median survival time, dose: 100.0 mg/kg/injection, schedule: Q01DX005 (ip), vehicle: saline with Tween-80 98 % of control | endpoint: median survival time, dose: 100.0 mg/kg/injection, schedule: Q04DX003 (ip), vehicle: saline 100 % of control | endpoint: median survival time, dose: 200.0 mg/kg/injection, schedule: Q01DX005 (ip), vehicle: saline with Tween-80 97 % of control | endpoint: median survival time, dose: 200.0 mg/kg/injection, schedule: Q04DX003 (ip), vehicle: saline 106 % of control | endpoint: median survival time, dose: 400.0 mg/kg/injection, schedule: Q01DX005 (ip), vehicle: saline with Tween-80 95 % of control | endpoint: median survival time, dose: 400.0 mg/kg/injection, schedule: Q04DX003 (ip), vehicle: saline 100 % of control

O=C(O)COC(C[N+](=O)[O-])C(Cl)(Cl)Cl (centres undefined)
inactive: [3] 93 % of control | [11] 104 % of control | [16] 98 % of control

O=[N+]([O-])c1ccc(N/N=C/c2ccc(CO)cc2)c([N+](=O)[O-])c1
inactive: [14] 91 % of control | [15] 92 % of control

O=C(Nc1ccccc1)Nc1ccccc1C(=O)O
inactive: [7] 100 % of control | [8] 95 % of control | [9] 94 % of control

COc1cc2c(cc1OC)-c1c3c(cc4c1[C@@H](C2)N(C)CC4)OCO3
inactive: endpoint: median survival time, dose: 12.5 mg/kg/injection, schedule: Q01DX005 (ip), vehicle: distilled water + Tween-80 96 % of control | endpoint: median survival time, dose: 25.0 mg/kg/injection, schedule: Q01DX005 (ip), vehicle: distilled water + Tween-80 104 % of control | endpoint: median survival time, dose: 50.0 mg/kg/injection, schedule: Q01DX005 (ip), vehicle: distilled water + Tween-80 87 % of control | endpoint: median survival time, dose: 100.0 mg/kg/injection, schedule: Q01DX005 (ip), vehicle: distilled water + Tween-80 107 % of control

COC(=O)C1CCC[N+](C)(C)C1 (centres undefined)
inactive: [17] 100 % of control | [18] 93 % of control

c1ccc(C(c2ccccc2)[n+]2ccccc2)cc1
inactive: endpoint: mean survival time, dose: 5.0 mg/kg/injection, schedule: Q01DX009 (ip), vehicle: saline 98 % of control | endpoint: mean survival time, dose: 5.0 mg/kg/injection, schedule: Q04DX003 (ip), vehicle: saline 104 % of control | endpoint: mean survival time, dose: 10.0 mg/kg/injection, schedule: Q01DX009 (ip), vehicle: saline 102 % of control | endpoint: mean survival time, dose: 10.0 mg/kg/injection, schedule: Q04DX003 (ip), vehicle: saline 103 % of control | endpoint: mean survival time, dose: 20.0 mg/kg/injection, schedule: Q04DX003 (ip), vehicle: saline 109 % of control

O=C(OC(C(=O)O)C(OC(=O)c1ccccc1)C(=O)O)c1ccccc1 (centres undefined) (tested in a mixture with another compound)
inactive: endpoint: mean survival time, dose: 50.0 mg/kg/injection, schedule: Q04DX002 (ip), vehicle: saline with Tween-80 92 % of control | [7] 105 % of control | endpoint: mean survival time, dose: 100.0 mg/kg/injection, schedule: Q04DX002 (ip), vehicle: saline with Tween-80 106 % of control | [3] 101 % of control | [8] 100 % of control | endpoint: mean survival time, dose: 200.0 mg/kg/injection, schedule: Q04DX002 (ip), vehicle: saline with Tween-80 95 % of control | [11] 106 % of control | [9] 97 % of control | [16] 98 % of control

CC(=O)Nc1c(N)ncnc1N
inactive: [3] 90 % of control | [11] 93 % of control | [16] 98 % of control

O=C1CCC2=C(CCC3(C2)OCCO3)N1
inactive: [5] 94 % of control | [13] 96 % of control | [6] 102 % of control | [14] 103 % of control | [10] 90 % of control | [15] 100 % of control

COc1cc(OC)c(NC(=O)Oc2ccc(SC)cc2)cc1Cl
inactive: [12] 94 % of control | endpoint: mean survival time, dose: 25.0 mg/kg/injection, schedule: Q01DX009 (ip), vehicle: saline with Tween-80 97 % of control | [4] 97 % of control | [5] 88 % of control | [6] 92 % of control

S=C1CCNCC1
inactive: endpoint: mean survival time, dose: 12.5 mg/kg/injection, schedule: Q01DX009 (ip), vehicle: saline 98 % of control | endpoint: mean survival time, dose: 12.5 mg/kg/injection, schedule: Q04DX003 (ip), vehicle: saline 100 % of control | [17] 103 % of control | endpoint: mean survival time, dose: 25.0 mg/kg/injection, schedule: Q04DX003 (ip), vehicle: saline 96 % of control | [18] 104 % of control | endpoint: mean survival time, dose: 50.0 mg/kg/injection, schedule: Q04DX003 (ip), vehicle: saline 87 % of control

CN(C)CCC(=O)C(c1ccccc1)c1ccccc1
inactive: endpoint: mean survival time, dose: 75.0 mg/kg/injection, schedule: Q01DX001 (ip), vehicle: saline 97 % of control | endpoint: mean survival time, dose: 150.0 mg/kg/injection, schedule: Q01DX001 (ip), vehicle: saline 101 % of control
